Results: US6936585B2, “Corticotropin releasing factor 2 receptor agonists” (priority 2002, dated 2005)
pEC50: −log10 of the molar value. Peptide text beside a SMILES is read from it.

What was measured:
[1] = target: T1, CRF1R (Homo sapiens, UniProt P34998); assay: CRF1R agonist activation (EC50 / Emax), called comparative CRF binding; assay type: cell-based; details: for Emax: read-out: CRF1R Emax
T1 sequence (P34998 24-415): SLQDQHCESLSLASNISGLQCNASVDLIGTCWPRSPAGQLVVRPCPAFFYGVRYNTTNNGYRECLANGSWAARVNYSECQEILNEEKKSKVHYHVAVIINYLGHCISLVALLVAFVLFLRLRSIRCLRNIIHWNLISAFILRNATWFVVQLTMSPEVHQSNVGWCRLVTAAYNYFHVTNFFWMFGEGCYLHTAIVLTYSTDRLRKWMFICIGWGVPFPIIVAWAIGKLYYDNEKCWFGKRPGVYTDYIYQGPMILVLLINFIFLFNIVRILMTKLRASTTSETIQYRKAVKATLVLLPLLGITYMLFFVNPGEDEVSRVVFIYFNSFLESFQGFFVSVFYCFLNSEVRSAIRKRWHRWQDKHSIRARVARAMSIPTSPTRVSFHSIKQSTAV
Outline: (§1)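 Receptor-expressing cells are contacted with test peptide or the vehicle it is dissolved in. Lysates are then assayed for cAMP, or expression of a CRE-coupled reporter is quantitated. Engineered cells carrying receptor-G-protein fusions may replace full-length receptors.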

[2] = target: T2, CRF2R (Homo sapiens, UniProt Q13324); assay: CRF2R agonist activation (EC50 / Emax), called comparative CRF binding; assay type: cell-based; details: for Emax: read-out: CRF2R Emax
T2 sequence (Q13324 1-411): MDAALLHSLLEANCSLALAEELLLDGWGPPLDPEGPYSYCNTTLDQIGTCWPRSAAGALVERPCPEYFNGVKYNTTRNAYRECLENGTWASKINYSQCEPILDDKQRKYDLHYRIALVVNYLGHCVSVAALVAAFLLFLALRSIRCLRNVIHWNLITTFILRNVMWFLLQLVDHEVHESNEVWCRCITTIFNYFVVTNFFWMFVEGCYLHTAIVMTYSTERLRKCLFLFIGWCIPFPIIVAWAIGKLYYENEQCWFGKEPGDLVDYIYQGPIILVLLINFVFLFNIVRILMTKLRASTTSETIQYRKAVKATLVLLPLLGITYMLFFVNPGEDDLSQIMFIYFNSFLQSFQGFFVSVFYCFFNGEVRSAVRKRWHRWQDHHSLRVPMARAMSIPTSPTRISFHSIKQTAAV
Outline: as §1

| Compound | Emax [1] [%] | Emax [2] [%] | pEC50 ([1]; read-out: CRF1R EC50) | pEC50 ([2]; read-out: CRF2R EC50) |
| --- | --- | --- | --- | --- |
| CC[C@H](C)[C@H](N)C(=O)N[C@H](C(=O)N[C@@H](CC(C)C)C(=O)N[C@@H](CO)C(=O)N[C@@H](CC(C)C)C(=O)N[C@@H](CC(=O)O)C(=O)N[C@H](C(=O)N1CCC[C@H]1C(=O)N[C@H](C(=O)N[C@@H](Cc1c[nH]cn1)C(=O)N[C@@H](CC(C)C)C(=O)N[C@@H](CC(C)C)C(=O)N[C@@H](CCC(N)=O)C(=O)N[C@H](C(=O)N[C@@H](CC(C)C)C(=O)N[C@@H](CC(C)C)C(=O)N[C@@H](CCC(=O)O)C(=O)N[C@@H](CCC(N)=O)C(=O)N[C@@H](C)C(=O)N[C@@H](CCCNC(=N)N)C(=O)N[C@@H](C)C(=O)N[C@@H](CCCNC(=N)N)C(=O)N[C@@H](C)C(=O)N[C@@H](C)C(=O)N[C@@H](CCCNC(=N)N)C(=O)N[C@@H](CCC(=O)O)C(=O)N[C@@H](CCC(N)=O)C(=O)N[C@@H](C)C(=O)N[C@H](C(=O)N[C@H](C(=O)N[C@@H](CC(N)=O)C(=O)N[C@@H](C)C(=O)N[C@@H](CCCNC(=N)N)C(=O)N[C@H](C(=O)N[C@@H](CC(C)C)C(=O)N[C@@H](C)C(=O)N[C@@H](CCCNC(=N)N)C(=O)N[C@H](C(N)=O)C(C)C)[C@@H](C)CC)[C@@H](C)O)[C@@H](C)O)[C@@H](C)CC)[C@@H](C)CC)C(C)C)C(C)C [compound 371] (H-IVLSLDVPIHLLQILLEQARARAAREQATTNARILARV-NH2; N-terminus assumed) | 22 | 97 |  |  |
| CC[C@H](C)[C@H](NC(=O)[C@H](C)NC(=O)[C@H](CC(N)=O)NC(=O)[C@H](CCC(N)=O)NC(=O)[C@H](CCC(=O)O)NC(=O)[C@H](C)NC(=O)[C@H](CCCNC(=N)N)NC(=O)[C@H](CCC(=O)O)NC(=O)[C@H](CCCNC(=N)N)NC(=O)[C@H](CCC(N)=O)NC(=O)[C@H](CO)NC(=O)[C@H](CCC(N)=O)NC(=O)[C@@H](NC(=O)[C@H](CCCNC(=N)N)NC(=O)[C@H](C)NC(=O)[C@H](CC(C)C)NC(=O)[C@H](CCC(=O)O)NC(=O)[C@H](CC(C)C)NC(=O)[C@H](CC(C)C)NC(=O)[C@@H](NC(=O)[C@H](CCCNC(=N)N)NC(=O)[C@H](CC(C)C)NC(=O)[C@H](CC(C)C)NC(=O)[C@@H](NC(=O)[C@H](Cc1ccccc1)NC(=O)[C@@H]1CCCN1C(=O)[C@H](CC(C)C)NC(=O)[C@H](CC(=O)O)NC(=O)[C@@H](NC(=O)[C@H](CO)NC(=O)[C@H](CC(C)C)NC(=O)[C@H](CO)NC(=O)[C@@H]1CCCN1C(=O)[C@H](CC(N)=O)NC(=O)[C@@H](N)CC(=O)O)[C@@H](C)CC)[C@@H](C)CC)[C@@H](C)O)[C@@H](C)O)C(=O)N[C@H](C(=O)N[C@@H](Cc1ccccc1)C(=O)N[C@@H](C)C(=O)N[C@@H](CO)C(=O)N[C@H](C(N)=O)C(C)C)[C@@H](C)CC [compound 181] (H-DNPSLSIDLPFILLRTLLELARTQSQRERAEQNAIIFASV-NH2; N-terminus assumed) | 100 | 97.8 |  |  |
| CC[C@H](C)[C@H](N)C(=O)N[C@H](C(=O)N[C@@H](CC(C)C)C(=O)N[C@@H](CO)C(=O)N[C@@H](CC(C)C)C(=O)N[C@@H](CC(=O)O)C(=O)N[C@H](C(=O)N1CCC[C@H]1C(=O)N[C@H](C(=O)NCC(=O)N[C@@H](CC(C)C)C(=O)N[C@@H](CC(C)C)C(=O)N[C@@H](CCC(N)=O)C(=O)N[C@H](C(=O)N[C@@H](CC(C)C)C(=O)N[C@@H](CC(C)C)C(=O)N[C@@H](CCC(=O)O)C(=O)N[C@@H](CCC(N)=O)C(=O)N[C@@H](C)C(=O)N[C@@H](CCCCN)C(=O)N[C@@H](CCC(N)=O)C(=O)N[C@@H](CCC(=O)O)C(=O)N[C@@H](C)C(=O)N[C@@H](C)C(=O)N[C@@H](CCCNC(=N)N)C(=O)N[C@@H](CCC(=O)O)C(=O)N[C@@H](CCC(N)=O)C(=O)N[C@@H](C)C(=O)N[C@H](C(=O)N[C@H](C(=O)N[C@@H](CC(N)=O)C(=O)N[C@@H](C)C(=O)N[C@@H](CCCNC(=N)N)C(=O)N[C@H](C(=O)N[C@@H](CC(C)C)C(=O)N[C@@H](C)C(=O)N[C@@H](CCCNC(=N)N)C(=O)N[C@H](C(N)=O)C(C)C)[C@@H](C)CC)[C@@H](C)O)[C@@H](C)O)[C@@H](C)CC)[C@@H](C)CC)C(C)C)C(C)C [compound 124] (H-IVLSLDVPIGLLQILLEQAKQEAAREQATTNARILARV-NH2; N-terminus assumed) | 6 | 94 | < 7.00 | 8.46 |
